Tests used:
[1] = molecular target: T1, thromboxane A2 receptor (TP) (Homo sapiens, UniProt P21731); experiment: Human Thromboxane A2 Receptor Binding Assay; details: human platelets; 10 nM [3H]SQ29548; 1 hour, room temperature
T1 construct: using human platelets as the source of the receptor; from tissue; host or cells: human platelets (whole platelets, 5x10^7 per well)
T1 sequence (P21731 1-343): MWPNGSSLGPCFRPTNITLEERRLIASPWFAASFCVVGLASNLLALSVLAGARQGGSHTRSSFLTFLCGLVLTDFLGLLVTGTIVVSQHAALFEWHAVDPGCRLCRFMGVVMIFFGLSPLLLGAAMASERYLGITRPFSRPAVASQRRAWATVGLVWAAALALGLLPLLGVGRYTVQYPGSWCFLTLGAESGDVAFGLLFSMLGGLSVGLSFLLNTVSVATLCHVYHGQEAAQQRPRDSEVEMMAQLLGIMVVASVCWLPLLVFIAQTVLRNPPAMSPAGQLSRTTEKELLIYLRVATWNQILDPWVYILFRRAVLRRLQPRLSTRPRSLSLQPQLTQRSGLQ
Excerpt: The thromboxane A2 receptor (TP) plays a key role in hemostasis as its abnormality leads to bleeding disorders. To avoid the potential liability of bleeding disorders, the binding activity of certain compounds of the present invention against TP was monitored by a receptor binding assay using human platelets as the source of the receptor and [^3H]SQ29548 (generically named (5Z)-[5,6-^3H]-7-[(1S,2R,3R,4R)-3-[[2-[(phenylamino)carbonyl]hydrazinyl]methyl]-7-oxabicyclo[2.2.1]hept-2-yl]-5-heptenoic acid, from PerkinElmer Inc.) as the competing radioactive ligand.
The TP binding reactions (0.2 mL) were performed in 96-well plates at room temperature in PBS containing 5×10^7 platelets, 10 mM MgCl2, 0.06% BSA, 10 nM [^3H]SQ29548, and the test compound at various concentrations. After 1 hour of binding reactions, the platelets were harvested on GF/B filter plates (as previously described from PerkinElmer Inc.) and washed 5 times with PBS using a Filtermate™ Harvester (as previously described from PerkinElmer Inc.). The radioactivities bound to the platelets were determined using a microplate scintillation counter (TopCount® NXT, from PerkinElmer Inc.) after adding 50 μL of Microscint™ 20 scintillation fluid (from PerkinElmer Inc.) to each well of the filter plates. The radioactivity from non-specific binding was determined by replacing the compound with 10 μM of ramatroban (BAY-u3405, from Cayman Chemical Company) in the reaction mixtures. The radioactivity bound to the platelets in the absence of compound (total binding) was determined by replacing the compound with 0.25% of DMSO in the reaction mixture. Specific binding data were obtained by subtracting the radioactivity of non-specific binding from each binding data.
(§1) The IC50 value is defined as the concentration of the tested compound that is required for 50% inhibition of total specific binding. In order to calculate the IC50 value, the percent inhibition data were determined for 7 concentrations for each compound. The percent inhibition for a compound at each concentration was calculated according to the following formula, [1−(specific binding in the presence of compound)/(total specific binding)]×100. The IC50 value was then obtained by fitting the percent inhibition data to a sigmoidal dose-response (4 parameter logistic) model in the XLfit® software Excel add-in program [from ID Business Solutions Ltd., model 205, where F(x)=(A+(B−A)/(1+((C/x)̂D)))].

human CRTH2 = molecular target: T2, human CRTH2 (Homo sapiens, UniProt Q9Y5Y4); experiment: Human CRTH2 Receptor Binding Assay (whole cell, [3H]ramatroban competition); parameters: expressed in transfected cells; host or cells: CHO-K1 (co-transfected with G-alpha16); details: CHO-K1 cells expressing human CRTH2 and G-alpha16; 20 nM [3H]ramatroban; 1 hour, room temperature
T2 sequence (Q9Y5Y4 1-395): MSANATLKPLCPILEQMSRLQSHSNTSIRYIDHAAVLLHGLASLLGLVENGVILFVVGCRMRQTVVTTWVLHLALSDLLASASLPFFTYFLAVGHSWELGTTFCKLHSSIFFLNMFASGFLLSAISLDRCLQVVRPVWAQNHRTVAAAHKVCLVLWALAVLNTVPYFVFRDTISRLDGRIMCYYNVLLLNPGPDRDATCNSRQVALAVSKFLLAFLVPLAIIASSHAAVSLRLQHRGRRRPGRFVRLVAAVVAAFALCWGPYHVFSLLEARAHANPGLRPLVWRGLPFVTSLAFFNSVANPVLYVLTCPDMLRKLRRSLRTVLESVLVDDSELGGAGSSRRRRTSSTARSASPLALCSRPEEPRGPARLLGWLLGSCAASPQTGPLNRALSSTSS
Excerpt: A whole cell receptor binding assay using [^3H]ramatroban as the competing radioactive ligand was employed to evaluate the compound binding activity to human CRTH2. The radioactive ligand [^3H]ramatroban was synthesized according to Sugimoto et. al. (Eur. J. Pharmacol. 524, 30-37, 2005) to a specific activity of 42 Ci/mmol.
A cell line stably expressing human CRTH2 was established by transfecting CHO-K1 cells with two mammalian expression vectors that harbored human CRTH2 and G-alpha16 cDNAs, respectively, using FuGene® 6 transfection reagent (from Roche). Stable clones expressing CRTH2 were selected by staining each clone with BM16 (BD Pharmingen™ from BD Biosciences, a division of Becton, Dickinson and Company), which is a rat monoclonal antibody to human CRTH2. The cells were maintained as monolayer cultures in Ham's F-12 medium containing 10% fetal bovine serum, 100 units/mL penicillin, 100 μg/mL streptomycin, 2 mM glutamine, 0.5 mg/mL G418 (geneticin) for CRTH2, and 0.2 mg/mL hygromycin-B (for G-alpha 16). For whole cell receptor binding assay, the monolayer cells were rinsed once with PBS (phosphate buffered saline), dissociated using ethylenediaminetetraacetate (Versene™ EDTA from Lonza Inc.), and suspended in PBS containing 10 mM MgCl2 and 0.06% BSA (bovine serum albumin) at 1.5×10^6 cells/mL.
The binding reactions (0.2 mL) were performed in 96-well plates at room temperature in PBS containing 1.5×10^5 cells, 10 mM MgCl2, 0.06% BSA, 20 nM [^3H]ramatroban, and test compound at various concentrations. After 1 hour of binding reactions, the cells were harvested on GF™/B filter microplates (microtiter plates with embedded glass fiber from PerkinElmer, Inc.) and washed 5 times with PBS using a Filtermate™ Harvester (a cell harvester that harvests and washes cells from microplates from PerkinElmer, Inc.). The radioactivities bound to the cells were determined using a microplate scintillation counter (TopCount® NXT, from PerkinElmer, Inc.) after adding 50 μL of Microscint™ 20 scintillation fluid (from PerkinElmer, Inc.) to each well of the filter plates. The radioactivity from non-specific binding was determined by replacing compound with 10 μM of 15(R)-15-methyl PGD2 (from Cayman Chemical Company) in the reaction mixtures. The radioactivity bound to the cells in the absence of compound (total binding) was determined by replacing compound with 0.25% of DMSO (dimethyl sulfoxide) in the reaction mixture. Specific binding data were obtained by subtracting the radioactivity of non-specific binding from each binding data.
as §1

Row | Structure (SMILES) | IC50 [1] [µM] | IC50 (human CRTH2) [nM]
1 | Cc1cc(C)cc(S(=O)(=O)N[C@@H]2CCCc3c(OCC(=O)O)cccc32)c1 [Example 10-4, [(R)-5-(3,5-dimethyl-benzenesulfonylamino)-5,6,7,8-tetrahydro-naphthalen-1-yloxy]-acetic acid] | 8.18 | 310
2 | CC(=O)c1cc(C(F)(F)F)cc(S(=O)(=O)N(C)[C@@H]2CCCc3c(OCC(=O)O)cccc32)c1 [Example 6-1, {(R)-5-[(3-acetyl-5-trifluoromethyl-benzenesulfonyl)-methyl-amino]-5,6,7,8-tetrahydro-naphthalen-1-yloxy}-acetic acid] | > 10 | 78.2
3 | COc1cc(C(F)(F)F)cc(S(=O)(=O)N[C@@H]2CCCc3c(OCC(=O)O)cccc32)c1 [Example 10-10, [(R)-5-(3-methoxy-5-trifluoromethyl-benzenesulfonylamino)-5,6,7,8-tetrahydro-naphthalen-1-yloxy]-acetic acid] | > 10 | 18
4 | O=C(O)COc1cccc2c1CCC[C@H]2NS(=O)(=O)c1cc(Br)cc(C(F)(F)F)c1 [Example 10-11, [(R)-5-(3-bromo-5-trifluoromethyl-benzenesulfonylamino)-5,6,7,8-tetrahydro-naphthalen-1-yloxy]-acetic acid] | > 10 | 9
5 | CS(=O)(=O)c1cc(S(C)(=O)=O)cc(S(=O)(=O)N[C@@H]2CCCc3c(OCC(=O)O)cccc32)c1 [Example 10-9, [(R)-5-(3,5-bis-methanesulfonyl-benzenesulfonylamino)-5,6,7,8-tetrahydro-naphthalen-1-yloxy]-acetic acid] | > 10 | 9
6 | COc1cc(C(F)(F)F)cc(S(=O)(=O)N(C)[C@@H]2CCCc3c(OCC(=O)O)cccc32)c1 [Example 1-4, {(R)-5-[(3-methoxy-5-trifluoromethyl-benzenesulfonyl)-methyl-amino]-5,6,7,8-tetrahydro-naphthalen-1-yloxy}-acetic acid] | > 10 | 110
7 | CC(C)[S+]([O-])c1cc(C(F)(F)F)cc(S(=O)(=O)N(C)[C@@H]2CCCc3c(OCC(=O)O)cccc32)c1 (stereo partly drawn) [Example 2-1, ((R)-5-{methyl-[3-(propane-2-sulfinyl)-5-trifluoromethyl-benzenesulfonyl]-amino}-5,6,7,8-tetrahydro-naphthalen-1-yloxy)-acetic acid] | > 10 | 6.8
8 | CN([C@@H]1CCCc2c(OCC(=O)O)cccc21)S(=O)(=O)c1cc(C(C)(C)C)cc(C(C)(C)C)c1 [Example 1-2, {(R)-5-[(3,5-di-tert-butyl-benzenesulfonyl)-methyl-amino]-5,6,7,8-tetrahydro-naphthalen-1-yloxy}-acetic acid] | > 10 | 177
9 | CN([C@@H]1CCCc2c(OCC(=O)O)cccc21)S(=O)(=O)c1cc(C(F)(F)F)cc(C(F)(F)F)c1 [Example 1-6, {(R)-5-[(3,5-bis-trifluoromethyl-benzenesulfonyl)-methyl-amino]-5,6,7,8-tetrahydro-naphthalen-1-yloxy}-acetic acid] | > 10 | 18.3
10 | CC(C)S(=O)(=O)c1cc(C(F)(F)F)cc(S(=O)(=O)N(C)[C@@H]2CCCc3c(OCC(=O)O)cccc32)c1 [Example 3-2, ((R)-5-{methyl-[3-(propane-2-sulfonyl)-5-trifluoromethyl-benzenesulfonyl]-amino}-5,6,7,8-tetrahydro-naphthalen-1-yloxy)-acetic acid] | > 10 | 3.6
